According to patent US20220144839A1, “INDOLE AHR INHIBITORS AND USES THEREOF” (Ikena Oncology, Inc., priority 2018, published 2022):

The molecules below were run against T1, AHR (UniProt P35869) (assay: DRE-Luciferase Reporter Assay (Alternate Method), Example 1B). Details: concentration which inhibits half of the luciferase activity induced by AHR activating ligand; DRE-luciferase reporter cell line.
T1 sequence (P35869 1-848): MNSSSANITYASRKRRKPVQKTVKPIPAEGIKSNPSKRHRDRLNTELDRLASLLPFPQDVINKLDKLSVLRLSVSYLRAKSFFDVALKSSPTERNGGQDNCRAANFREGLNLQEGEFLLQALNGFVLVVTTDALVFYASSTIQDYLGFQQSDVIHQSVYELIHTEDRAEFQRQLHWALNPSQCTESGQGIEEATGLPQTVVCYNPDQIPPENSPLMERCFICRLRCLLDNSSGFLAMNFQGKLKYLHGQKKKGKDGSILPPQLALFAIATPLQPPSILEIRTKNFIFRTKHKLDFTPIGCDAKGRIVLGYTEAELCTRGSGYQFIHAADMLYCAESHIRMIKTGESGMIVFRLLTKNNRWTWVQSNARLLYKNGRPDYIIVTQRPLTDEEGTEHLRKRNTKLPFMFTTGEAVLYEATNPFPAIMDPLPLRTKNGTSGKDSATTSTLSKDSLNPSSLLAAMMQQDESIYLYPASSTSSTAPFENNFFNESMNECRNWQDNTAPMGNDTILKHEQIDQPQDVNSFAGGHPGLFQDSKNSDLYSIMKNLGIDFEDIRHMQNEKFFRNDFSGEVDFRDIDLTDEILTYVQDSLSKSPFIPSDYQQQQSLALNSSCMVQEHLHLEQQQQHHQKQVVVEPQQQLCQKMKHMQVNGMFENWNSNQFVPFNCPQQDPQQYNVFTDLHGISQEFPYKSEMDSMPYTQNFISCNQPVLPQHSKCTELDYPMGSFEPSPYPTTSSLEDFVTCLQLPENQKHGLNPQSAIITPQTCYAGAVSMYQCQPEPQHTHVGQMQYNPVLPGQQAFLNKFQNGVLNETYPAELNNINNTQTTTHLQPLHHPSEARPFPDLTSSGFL
Type: cell-based
How it was run: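 Murine (Hepa1-6, Hepa-1c1c7) or human (HepG2) cells carrying a stable or transient DRE-luciferase reporter, stimulated with an AHR agonist (e.g. TCDD, kynurenine, ITE, BNF, FICZ) plus compound at plating or after overnight culture at 37 °C. Luciferase read after 4, 15 or 24 h; IC50 as concentration halving agonist-only signal relative to no-ligand baseline.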
`C[C@H](NC(=O)N1CCOCC1)c1cnn2c(N[C@@H]3CCc4[nH]c5ccccc5c4C3)nc(-c3cncc(F)c3)nc12` [Compound I-56a, N-[(1S)-1-[2-(5-Fluoro-3-pyridyl)-4-[[(3R)-2,3,4,9-tetrahydro-1H-carbazol-3-yl]amino]pyrazolo[1,5-a][1,3,5]triazin-8-yl]ethyl]morpholine-4-carboxamide] showed an IC50 of under 500 nM. `C[C@@H](NC(=O)N1CCOCC1)c1cnn2c(N[C@@H]3CCc4[nH]c5ccccc5c4C3)nc(-c3cncc(F)c3)nc12` [Compound I-56b, N-[(1R)-1-[2-(5-Fluoro-3-pyridyl)-4-[[(3R)-2,3,4,9-tetrahydro-1H-carbazol-3-yl]amino]pyrazolo[1,5-a][1,3,5]triazin-8-yl]ethyl]morpholine-4-carboxamide] showed an IC50 of under 500 nM. `CC(C)c1cnn2c(NCCc3cccnc3N)nc(-c3cncc(F)c3)nc12` [Compound I-58, N-[2-(2-Amino-3-pyridyl)ethyl]-2-(5-fluoro-3-pyridyl)-8-isopropyl-pyrazolo[1,5-a][1,3,5]triazin-4-amine] gave an IC50 of under 500 nM. `[2H]C([2H])([2H])C(c1cnn2c(N[C@@H]3CCc4[nH]c5ccccc5c4C3)nc(-c3cncc(F)c3)nc12)C([2H])([2H])[2H]` [Compound I-59, (3R)—N-[2-(5-Fluoro-3-pyridyl)-8-[2,2,2-trideuterio-1-(trideuteriomethyl)ethyl]pyrazolo[1,5-a][1,3,5]triazin-4-yl]-2,3,4,9-tetrahydro-1H-carbazol-3-amine] was tested, and the IC50 was under 500 nM. With `CC(C)c1cnn2c(N[C@H]3CNc4ncncc4C3)nc(-c3cncc(F)c3)nc12` [Compound I-60a, (6R)—N-[2-(5-Fluoro-3-pyridyl)-8-isopropyl-pyrazolo[1,5-a][1,3,5]triazin-4-yl]-5,6,7,8-tetrahydropyrido[2,3-d]pyrimidin-6-amine] the IC50 was over 1500 nM. With `CC(C)c1cnn2c(N[C@@H]3CNc4ncncc4C3)nc(-c3cncc(F)c3)nc12` [Compound I-60b, (6S)—N-[2-(5-fluoro-3-pyridyl)-8-isopropyl-pyrazolo[1,5-a][1,3,5]triazin-4-yl]-5,6,7,8-tetrahydropyrido[2,3-d]pyrimidin-6-amine] the IC50 was under 500 nM. `C[C@H](NC(=O)N1CCN(C)CC1)c1cnn2c(N[C@@H]3CCc4[nH]c5ccccc5c4C3)nc(-c3cncc(F)c3)nc12` [Compound I-61a, N-[(1S)-1-[2-(5-Fluoro-3-pyridyl)-4-[[(3R)-2,3,4,9-tetrahydro-1H-carbazol-3-yl]amino]pyrazolo[1,5-a][1,3,5]triazin-8-yl]ethyl]-4-methyl-piperazine-1-carboxamide] gave an IC50 of under 500 nM. Molecule `C[C@@H](NC(=O)N1CCN(C)CC1)c1cnn2c(N[C@@H]3CCc4[nH]c5ccccc5c4C3)nc(-c3cncc(F)c3)nc12` [Compound I-61b, N-[(1R)-1-[2-(5-Fluoro-3-pyridyl)-4-[[(3R)-2,3,4,9-tetrahydro-1H-carbazol-3-yl]amino]pyrazolo[1,5-a][1,3,5]triazin-8-yl]ethyl]-4-methyl-piperazine-1-carboxamide] has an IC50 of 500 to 1000 nM. `CC(C)c1cnn2c(N[C@H]3Cc4[nH]cnc4NC3=O)nc(-c3cncc(F)c3)nc12` [Compound I-62a, (6S)-6-[[2-(5-Fluoro-3-pyridyl)-8-isopropyl-pyrazolo[1,5-a][1,3,5]triazin-4-yl]amino]-1,4,6,7-tetrahydroimidazo[4,5-b]pyridin-5-one] gave an IC50 of over 1500 nM. With `CC(C)c1cnn2c(N[C@@H]3Cc4[nH]cnc4NC3=O)nc(-c3cncc(F)c3)nc12` [Compound I-62b, (6R)-6-[[2-(5-fluoro-3-pyridyl)-8-isopropyl-pyrazolo[1,5-a][1,3,5]triazin-4-yl]amino]-1,4,6,7-tetrahydroimidazo [4,5-b]pyridin-5-one] the IC50 was over 1500 nM. `CC(C)c1cnn2c(N[C@@H]3CCc4c(ccnc4N)C3)nc(-c3cncc(F)c3)nc12` [Compound I-63a, (6R)—N6-[2-(5-Fluoro-3-pyridyl)-8-isopropyl-pyrazolo[1,5-a][1,3,5]triazin-4-yl]-5,6,7,8-tetrahydroisoquinoline-1,6-diamine] showed an IC50 of over 1500 nM.
